Source: patent US9884839B2, “Inhibitors of 17Beta-hydroxysteroid dehydrogenases type 1 and type 2” (ElexoPharm GmbH, priority 2014, dated 2018)
Read-outs that look alike come from different tables or passages of the source.

What was measured:
human 17β-HSD1 = target: T1, human 17β-HSD1 (Homo sapiens, UniProt P14061); experiment: Inhibition of human 17β-HSD1 (conversion of [3H]-E1 to E2, HPLC radioflow detection); type: biochemical; settings: for IC50: read-out: IC50 [nM] h17β-HSD1; for inhibition at 0.1 µM: read-out: % inhibition h17β-HSD1 @ 100 nM, compound 100 nM
T1 construct: For the partial purification of 17β-HSD1, the cytosolic fraction was precipitated with ammonium sulfate; from tissue; host or cells: human placenta, cytosolic fraction, ammonium sulfate precipitate
T1 sequence (P14061 1-328): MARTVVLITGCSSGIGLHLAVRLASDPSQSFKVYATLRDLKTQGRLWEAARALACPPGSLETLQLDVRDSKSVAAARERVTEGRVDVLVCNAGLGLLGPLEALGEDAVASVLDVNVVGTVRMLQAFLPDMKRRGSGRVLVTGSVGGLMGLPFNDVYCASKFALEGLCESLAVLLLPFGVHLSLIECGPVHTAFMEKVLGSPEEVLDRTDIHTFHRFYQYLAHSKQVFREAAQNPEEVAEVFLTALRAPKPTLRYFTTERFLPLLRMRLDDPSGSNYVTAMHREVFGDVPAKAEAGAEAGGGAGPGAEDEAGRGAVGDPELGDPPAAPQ

mouse 17β-HSD1 = target: T2, mouse 17β-HSD1 (Mus musculus, UniProt P51656); experiment: Inhibition of mouse 17β-HSD1 (recombinant, HEK293 lysate); type: biochemical
T2 construct: made in house; host or cells: HEK293 cells, transient transfection; 1,000 g supernatant of the cell lysate
T2 sequence (P51656 1-344): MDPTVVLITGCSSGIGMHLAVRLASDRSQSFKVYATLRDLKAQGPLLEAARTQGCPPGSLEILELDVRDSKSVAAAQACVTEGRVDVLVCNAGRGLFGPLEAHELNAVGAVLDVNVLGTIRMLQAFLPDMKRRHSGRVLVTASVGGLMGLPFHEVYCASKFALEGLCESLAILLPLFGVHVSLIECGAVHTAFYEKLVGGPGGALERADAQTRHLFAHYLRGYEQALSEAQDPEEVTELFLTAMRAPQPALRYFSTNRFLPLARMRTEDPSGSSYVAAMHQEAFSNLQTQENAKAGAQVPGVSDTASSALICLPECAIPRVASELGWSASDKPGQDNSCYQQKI

rat 17β-HSD1 = target: T3, rat 17β-HSD1 (Rattus norvegicus, UniProt P51657); experiment: Inhibition of rat 17β-HSD1 (recombinant, HEK293 lysate); type: biochemical; settings: for inhibition at 0.5 µM: Cmpd conc. 500 nM; for inhibition at 0.5 µM / inhibition at […]: read-out: % Inhibition r17β-HSD1
T3 construct: made in house; host or cells: HEK293 cells, transient transfection; 1,000 g supernatant of the cell lysate
T3 sequence (P51657 1-344): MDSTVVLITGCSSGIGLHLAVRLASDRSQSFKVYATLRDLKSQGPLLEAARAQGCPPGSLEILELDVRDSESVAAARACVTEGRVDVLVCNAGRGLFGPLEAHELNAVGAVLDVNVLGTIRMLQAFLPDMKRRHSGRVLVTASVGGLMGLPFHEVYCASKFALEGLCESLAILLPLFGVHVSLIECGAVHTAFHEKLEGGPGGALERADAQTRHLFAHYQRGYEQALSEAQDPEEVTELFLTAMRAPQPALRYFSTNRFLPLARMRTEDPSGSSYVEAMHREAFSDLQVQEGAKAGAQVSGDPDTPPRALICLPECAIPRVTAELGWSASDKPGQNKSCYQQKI

mouse 17β-HSD2 = target: T4, mouse 17β-HSD2 (Mus musculus, UniProt P51658); experiment: Inhibition of mouse 17β-HSD2 (liver microsomal fraction); type: biochemical; settings: for IC50: read-out: IC50 m17β-HSD2
T4 construct: The pellet fractions containing the microsomal 17β-HSD2 were used for the determination of E1 formation; from tissue; host or cells: mouse liver, microsomal fraction
T4 sequence (P51658 1-381): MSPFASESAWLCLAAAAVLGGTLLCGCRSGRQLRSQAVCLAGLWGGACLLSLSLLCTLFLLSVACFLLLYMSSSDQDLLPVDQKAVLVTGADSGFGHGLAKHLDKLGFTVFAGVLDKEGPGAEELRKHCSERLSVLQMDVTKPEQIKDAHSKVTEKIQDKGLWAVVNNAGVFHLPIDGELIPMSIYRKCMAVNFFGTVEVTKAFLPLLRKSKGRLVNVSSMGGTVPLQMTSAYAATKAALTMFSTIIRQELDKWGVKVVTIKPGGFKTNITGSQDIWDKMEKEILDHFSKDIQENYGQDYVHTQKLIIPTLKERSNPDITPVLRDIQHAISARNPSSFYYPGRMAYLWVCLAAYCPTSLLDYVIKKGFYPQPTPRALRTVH

rat 17β-HSD2 = target: T5, rat 17β-HSD2 (Rattus norvegicus, UniProt Q62730); experiment: Inhibition of rat 17β-HSD2 (liver microsomal fraction); type: biochemical; settings: for inhibition at 0.5 µM / inhibition at […]: read-out: % Inhibition r17β-HSD2
T5 construct: The pellet fractions containing the microsomal 17β-HSD2 were used for the determination of E1 formation; from tissue; host or cells: rat liver, microsomal fraction
T5 sequence (Q62730 1-381): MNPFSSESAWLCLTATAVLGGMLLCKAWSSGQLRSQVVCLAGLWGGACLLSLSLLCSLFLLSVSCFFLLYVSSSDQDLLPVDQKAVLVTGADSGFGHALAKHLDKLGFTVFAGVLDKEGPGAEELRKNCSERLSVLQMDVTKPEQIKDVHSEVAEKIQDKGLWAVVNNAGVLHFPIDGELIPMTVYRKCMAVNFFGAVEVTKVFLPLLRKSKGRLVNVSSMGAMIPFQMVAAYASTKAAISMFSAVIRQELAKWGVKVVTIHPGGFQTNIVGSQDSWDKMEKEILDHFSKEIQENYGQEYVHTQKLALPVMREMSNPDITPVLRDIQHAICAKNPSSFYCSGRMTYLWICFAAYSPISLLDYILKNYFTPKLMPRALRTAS

human 17β-HSD2 = target: T6, human 17β-HSD2 (Homo sapiens, UniProt P37059); experiment: Inhibition of human 17β-HSD2 (conversion of [3H]-E2 to E1); type: biochemical; settings: for IC50: read-out: IC50 [nM] h17β-HSD2
T6 construct: 17β-HSD2 was obtained from the microsomal fraction; from tissue; host or cells: human placenta, microsomal fraction
T6 sequence (P37059 1-387): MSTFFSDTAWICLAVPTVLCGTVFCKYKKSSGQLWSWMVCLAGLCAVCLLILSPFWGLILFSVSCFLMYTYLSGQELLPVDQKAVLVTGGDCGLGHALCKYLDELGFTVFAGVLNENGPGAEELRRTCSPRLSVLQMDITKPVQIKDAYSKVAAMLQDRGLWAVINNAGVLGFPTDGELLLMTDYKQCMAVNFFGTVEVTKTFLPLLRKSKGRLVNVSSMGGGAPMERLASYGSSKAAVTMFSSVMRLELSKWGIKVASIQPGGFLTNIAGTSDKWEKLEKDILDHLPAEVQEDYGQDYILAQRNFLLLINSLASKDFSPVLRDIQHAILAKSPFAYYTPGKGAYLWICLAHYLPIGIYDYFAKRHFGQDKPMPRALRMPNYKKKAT

in vitro = settings: human, pooled human liver S9 fraction
[1] = human liver S9, 1 mg/mL; unit not given
[2] = human placental cytosolic enzyme, E1 500 nM, NADH, Tables 1, 4-11
[3] = read-out: % inhibition m17β-HSD1 @ 1 μM
[4] = read-out: Inhibition @ 1 μM m17β-HSD1
[5] = read-out: % inhibition m17β-HSD2 @ 1 μM
[6] = read-out: Inhibition @ 1 μM m17β-HSD2
[7] = Tables 4 and 6, no % sign and concentration not given, Table 1 lists these compounds as inhibition @ 1 μM, read-out: IC50 [nM] or % inhibition m17β-HSD1 (bare number, kind not marked)

Row | SMILES | IC50 (human 17β-HSD1; [2]) | inhibition at 1 µM (mouse 17β-HSD1; [4]) | inhibition at 1 µM (mouse 17β-HSD2; [6]) | IC50 (human 17β-HSD2) | inhibition at […] (rat 17β-HSD1; Cmpd conc. 250 nM) | inhibition at […] (rat 17β-HSD2) | further results
1 | O=C(c1ccc(-c2ccc(O)c(Cl)c2)s1)c1c(F)ccc(O)c1F [Compound 20, [5-(3-Chloro-4-hydroxy-phenyl)-thiophen-2-yl]-(2,6-difluoro-3-hydroxy-phenyl)-methanone] | 0.5 nM | 50% | 82% | 20 nM |  |  | inhibition at 1 µM (mouse 17β-HSD1; [3]): 50%; inhibition at 0.5 µM (rat 17β-HSD1): 48%; inhibition at 1 µM (mouse 17β-HSD2; [5]): 95%; inhibition at 0.5 µM (rat 17β-HSD2): 98%
2 | CC(=O)N1CCN(Cc2cc(-c3ccc(C(=O)c4c(F)ccc(O)c4F)s3)cc(Cl)c2O)CC1 [Compound 29, 1-(4-{3-Chloro-5-[5-(2,6-difluoro-3-hydroxy-benzoyl)-thiophen-2-yl]-2-hydroxy-benzyl}-piperazin-1-yl)-ethanone] |  | 16% | 40% | 11 nM |  |  | IC50 (human 17β-HSD1): 2.1 nM; % Inhibition r17β-HSD1 (rat 17β-HSD1; Cmpd conc. 250 nM): n.i.^c; % Inhibition r17β-HSD2 (rat 17β-HSD2): n.i.^c
3 | COc1c(C)cc(-c2ccc(C(=O)c3c(F)ccc(O)c3F)s2)cc1C [Compound 16, (2,6-Difluoro-3-hydroxy-phenyl)-[5-(4-methoxy-3,5-dimethyl-phenyl)-thiophen-2-yl]-methanone] | 0.9 nM | 59% | 55% | 18 nM | 39% | 27% | half-life at 1 µM (in vitro): 8.5 min; CLint [1]: 81.3
4 | COc1ccc(-c2ccc(C(=O)c3c(F)ccc(O)c3F)s2)cc1S(=O)(=O)N1CCOCC1 [Compound 19, (2,6-Difluoro-3-hydroxy-phenyl)-{5-[4-methoxy-3-(morpholine-4-sulfonyl)-phen-yl]-thiophen-2-yl}-methanone] |  | 58% | 44% |  | 26% |  | inhibition at 1 µM (human 17β-HSD1; read-out: % inhibition h17β-HSD1 @ 1 μM): 79%; % Inhibition r17β-HSD2 (rat 17β-HSD2): n.i.^c; inhibition at 1 µM (human 17β-HSD2; read-out: % inhibition h17β-HSD2 @ 1 μM): 85%
5 | O=C(c1ccc(-c2ccc(F)cc2F)s1)c1c(F)ccc(O)c1F [Compound 10, (2,6-Difluoro-3-hydroxy-phenyl)-[5-(2,4-difluoro-phenyl)-thiophen-2-yl]-methan-one] | 3.5 nM | 41% | 67% |  | 63% | 66% | inhibition at 1 µM (mouse 17β-HSD1; [7]): 41%
6 | O=C(c1ccc(-c2ccc(F)cc2F)s1)c1cc(F)c(F)c(O)c1F [Compound 40, [5-(2,4-Difluoro-phenyl)-thiophen-2-yl]-(2,4,5-trifluoro-3-hydroxy-phenyl)-methanone] |  | 28% |  | 1.4 nM | 58% | 86% | IC50 (human 17β-HSD1): 7.2 nM; inhibition at 1 µM (mouse 17β-HSD1; [7]): 27.5%; IC50 (mouse 17β-HSD2): 326 nM
7 | O=C(c1ccc(Br)s1)c1c(F)ccc(O)c1F [Compound 1e, (5-Bromo-thiophen-2-yl)-(2,6-difluoro-3-hydroxy-phenyl)-methanone] |  |  |  |  | 5% | 60% | inhibition at 0.1 µM (human 17β-HSD1): 85%; inhibition at 1 µM (mouse 17β-HSD1; [3]): 5%; inhibition at 1 µM (mouse 17β-HSD2; [5]): 80%; inhibition at 0.1 µM (human 17β-HSD2; read-out: IC50 [nM] or % inhibition h17β-HSD1 (second column so headed, Table 9): % @ 100 nM): 71%
8 | Cc1cc(-c2ccc(C(=O)c3c(F)ccc(O)c3F)s2)cc(C)c1O [Compound 24, (2,6-Difluoro-3-hydroxy-phenyl)-[5-(4-hydroxy-3,5-dimethyl-phenyl)-thiophen-2-yl]-methanone] |  |  | 76% | 7 nM | 63% | 35% | half-life at 1 µM (in vitro): 2.6 min; IC50 (human 17β-HSD1): 0.4 nM; IC50 (mouse 17β-HSD1; recombinant mouse enzyme, E1 10 nM, NADPH, read-out: IC50 m17β-HSD1): 397 nM; CLint [1]: 272.7
9 | O=C(c1ccc(-c2ccc(F)cc2F)s1)c1cccc(O)c1F [C, reference compound] |  |  |  |  | 35% | 20% | inhibition at 0.1 µM (human 17β-HSD1): 92%; inhibition at 1 µM (mouse 17β-HSD1; [3]): 18%; inhibition at 1 µM (mouse 17β-HSD2; [5]): 75%; inhibition at 0.1 µM (human 17β-HSD2; read-out: % inhibition h17β-HSD2 @ 100 nM): 87%
10 | COc1c(Cl)cc(-c2ccc(C(=O)c3c(F)ccc(O)c3F)s2)cc1CN1CCNCC1 [Compound 30, [5-(3-Chloro-4-methoxy-5-piperazin-1-ylmethyl-phenyl)-thiophen-2-yl]-(2,6-difluoro-3-hydroxy-phenyl)-methanone] | 4.7 nM | 25% | 41% | 26 nM |  |  | half-life at 1 µM (in vitro): 6.5 min; CLint [1]: 106.8; inhibition at 0.5 µM (rat 17β-HSD1): 51%; inhibition at 0.5 µM (rat 17β-HSD2): 55%
11 | Nc1cccc(-c2ccc(C(=O)c3cc(F)c(F)c(O)c3F)s2)c1 [Compound 35, [5-(3-Aminophenyl)thiophen-2-yl](2,4,5-trifluoro-3-hydroxyphenyl)methanone] | 49 nM | 9% | 80% | 5 nM | 46% | 100% | inhibition at 1 µM (mouse 17β-HSD1; [7]): 13%; IC50 (mouse 17β-HSD2): 177 nM
